The results in this text go back to publication PMC8344022, “Small-molecule inhibitor of AF9/ENL-DOT1L/AF4/AFF4 interactions suppresses malignant gene expression and tumor growth” (Theranostics, 2021).

Some results are limits rather than exact numbers.

One assay has as its target T1, AF9-DOT1L interaction (Homo sapiens, UniProt P42568).
T1 construct: cDNA for human AF9 AHD domain (475-568) and ENL AHD domain (489-559) was synthesized; made in house; host or cells: E. coli BL21(DE3)
T1 sequence (P42568 475-568): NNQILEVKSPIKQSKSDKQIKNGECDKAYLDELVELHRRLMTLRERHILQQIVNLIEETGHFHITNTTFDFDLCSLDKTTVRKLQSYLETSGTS
Kind of assay: Alpha assay, AF9 AHD-DOT1L peptide interaction. It counts as binding. Conditions: for IC50: read-out: IC50, inhibition of AF9-DOT1L interaction. An excerpt:
We developed an Alpha (amplified luminescent proximity homogeneous assay) assay to determine the binding and inhibition of the PPI between maltose-binding protein (MBP)-tagged AF9 AHD and a biotin-labeled DOT1L peptide, using AlphaLisa streptavidin donor beads and anti-MBP acceptor beads. Laser excitation to the donor beads generates singlet oxygen radicals, which can travel for <200 nm in solution and cannot reach the free acceptor beads. The PPI brings the DOT1L coated donor beads and AHD coated acceptor beads together, allowing the radicals to activate the acceptor beads and produce luminescence. […] We also developed a fluorescence polarization (FP) assay. A fluorescein-labeled DOT1L peptide has a higher freedom in solution with a lower polarization value.
Alpha assays. Alpha assays were developed using Perkin-Elmer AlphaLisa anti-MBP kit, which contains streptavidin donor beads and anti-MBP acceptor beads. The assay was performed using a MBP-protein (5 nM), a biotinylated peptide (40 nM), and increasing concentrations of a compound in 25 µL buffer (PBS with 0.5 % BSA, pH 7.5) in 384-well plates according to the manufacturer's protocol and measured with a Tecan SPARK microplate reader. Data were imported into Prism (version 5.0), and IC50 values from 3 independent experiments with standard deviation were obtained by using a standard dose-response curve fitting.

Assay [1] deals with T2, AF9 AHD bound to DOT1L-coated beads (Homo sapiens, UniProt P42568).
T2 construct: cDNA for human AF9 AHD domain (475-568) and ENL AHD domain (489-559) was synthesized; made in house; host or cells: E. coli BL21(DE3)
Kind of assay: Western blot based pull-down assay. It counts as binding. The settings on record: increasing concentrations. As to the method: A non-optical pull-down assay was used to further validate compound 1. DOT1L-coated beads were incubated with AF9 AHD in the presence of increasing concentrations of 1.
Western blot based pull-down assay. Biotinylated DOT1L peptide (0.25 mg/mL) was incubated with streptavidin agarose beads in PBS containing 0.1% Triton X-100 (400 µL) for 3h to yield, after washing, DOT1L-coated beads. MBP-AF9 AHD (0.2 µM, 40 µL) was pre-incubated with a compound for 30 min before adding to the beads. After 6 hours incubation at 4 °C, the beads were collected, thoroughly washed, and subjected to SDS-PAGE and analyzed by Western blot using an MBP Mouse mAb (#2396, Cell signaling).

The next assay deals with HL60 cells. Kind of assay: Antiproliferation assay (XTT). It counts as cell-based. Conditions: Homo sapiens, HL-60, 168 h, 7-day incubation, read-out: Cytotoxicity EC50. As to the method:
(§1) Antiproliferation assay. Proliferation inhibition assays for suspension blood cancer cells were performed using an XTT assay kit (Roche). Proliferation inhibition assays for solid tumor cell lines MCF-7, MDA-MB-231, Panc1, Panc28 were performed using an MTT assay (Sigma). The antiproliferation EC50 values were determined using Prism 5 and the reported results were the mean values of at least three independent experiments. The incubation time for compound 1 was 7 days and that for EPZ4777 was 14 days.

In a further assay the test system is Jurkat cells. Kind of assay: Antiproliferation assay (XTT). Format: cell-based. The settings on record: Homo sapiens, 168 h, 7-day incubation, read-out: Cytotoxicity EC50. As to the method:
as §1

For a further assay, the system named is Kasumi-1 cells. Kind of assay: Antiproliferation assay (XTT). Format: cell-based. The settings on record: Homo sapiens, 168 h, 7-day incubation, read-out: Cytotoxicity EC50. As to the method: as §1
Another assay has as its system MV4;11 cells. Kind of assay: Antiproliferation assay (XTT). Format: cell-based. The settings on record: Homo sapiens, 168 h, 7-day incubation, read-out: Cytotoxicity EC50. The protocol: as §1
For a further assay, the system named is Molm-13 cells. Kind of assay: Antiproliferation assay (XTT). Format: cell-based. The settings on record: Homo sapiens, 168 h, 7-day incubation, read-out: Cytotoxicity EC50. As to the method: as §1
The next assay deals with RPMI-8226 cells. Kind of assay: Antiproliferation assay (XTT). Format: cell-based. The settings on record: Homo sapiens, 168 h, 7-day incubation, read-out: Cytotoxicity EC50. As to the method: as §1
The next assay deals with THP-1 cells. Kind of assay: Antiproliferation assay (XTT). The settings on record: Homo sapiens, 168 h, 7-day incubation, read-out: Cytotoxicity EC50. It counts as cell-based. The protocol:
as §1

For a further assay, the system named is U266 cells. Briefly: Antiproliferation assay (XTT). Format: cell-based. Conditions: Homo sapiens, U-266, 168 h, 7-day incubation, read-out: Cytotoxicity EC50. The protocol: as §1
The test system of a further assay is MCF-7 cells. Kind of assay: Antiproliferation assay (MTT). Format: cell-based. The settings on record: Homo sapiens, MCF7, 168 h, 7-day incubation, read-out: Cytotoxicity EC50. As to the method: as §1
The next assay relates to MDA-MB-231 cells. Kind of assay: Antiproliferation assay (MTT). It counts as cell-based. The settings on record: Homo sapiens, 168 h, 7-day incubation, read-out: Cytotoxicity EC50. As to the method: as §1
In a further assay the test system is Panc-1 cells. Kind of assay: Antiproliferation assay (MTT). It counts as cell-based. Conditions: Homo sapiens, 168 h, 7-day incubation, read-out: Cytotoxicity EC50. The protocol: as §1
For another assay, the system named is Panc-28 cells. Briefly: Antiproliferation assay (MTT). It counts as cell-based. The settings on record: 168 h, 7-day incubation, read-out: Cytotoxicity EC50. The protocol: as §1
For the next assay, the system named is cancer cells. Kind of assay: Antiproliferation assays, cancer cell panel. Format: cell-based. Conditions: all cancer cells tested; read-out: EC50 against proliferation. As to the method:
The differential antiproliferation activities of compound 1 is consistent with its ability to suppress DOT1L/H3K79 methylation and SEC regulated gene expression, which are critical to MLL-r leukemia and Myc-driven blood cancer, but largely dispensable to other solid tumor cells.
as §1

Assay [2] deals with HoxA9, Meis1 and Myc expression in MV4;11 cells. Briefly: qPCR of MLL target genes. It counts as cell-based. The settings on record: 4 days. The protocol:
(§2) Next, compound 1 was tested for its ability to change expression of characteristic MLL-r leukemia genes HoxA9, Meis1 and Myc. Myc is also overexpressed in a broad range of AML and other cancers. […] (Figure S5), presumably because SEC is not recruited there.
(§3) RNA extraction and Quantitative real-time PCR (qPCR). 10^5 cells/ml were incubated with a compound for 4 days and the RNA was extracted using RNeasy mini kit (#74104, Qiagen). 100-1000 ng of total RNA was reverse transcribed using iScript™ Reverse Transcription Supermix (Bio-Rad) using the manufacturer's protocol. Quantitative real-time PCR was carried out using Fast SYBR Green Master Mix (Applied Biosystems) according to the manufacturer's instructions. Measurements were performed in triplicate, using GAPDH as the reference gene. Real-time PCR was performed using Biosystems Step One Plus detection system. The following sequences of primers are used: […]

In assay [3] the test system is HoxA9, Meis1 and Myc expression in Molm-13 cells. Briefly: qPCR of MLL target genes. The settings on record: 4 days. Format: cell-based. As to the method:
as §2, §3

With `CC(C)(C)c1ccc(-n2cc(C(=O)Nc3ccncc3)nc2-c2ccccc2)cc1` [Compound 7], the IC50 on AF9-DOT1L interaction stood at 22.7 µM.
Regarding `CC(C)(C)c1ccc(-n2cc(C(=O)Nc3ccc(Cl)c(F)c3)nc2-c2ccccc2)cc1` [Compound 9], at AF9-DOT1L interaction, the “IC50, inhibition of AF9-DOT1L interaction” value was “inactive” and the IC50 was greater than 50 µM.
Take `Cc1nc(C(=O)NC2CCNCC2)cn1-c1ccc(C(C)(C)C)cc1` [Compound 6]: the IC50 on AF9-DOT1L interaction was greater than 50 µM.
Same read-out and setting: with `CC(C)(C)c1ccc(-n2cc(C(=O)NCC3CCNCC3)nc2-c2ccccc2)cc1` [Compound 8] the figure was 29.2 µM; with `CC(C)c1nc(C(=O)NC2CCNCC2)cn1-c1ccc(C(C)(C)C)cc1` [Compound 5], 7.8 µM.
Turning to `O=C(NC1CCNCC1)c1cn(-c2ccc(-c3cn[nH]c3)cc2)c(-c2ccccc2)n1` [Compound 3], the IC50 at AF9-DOT1L interaction was greater than 50 µM. Besides, the “Beads-bound AF9 AHD in pull-down (Western blot)” value in [1] is listed as “cannot”. Further, the EC50 with HL60 cells, in the assay on Jurkat cells, in the assay on Kasumi-1 cells, in the assay with MV4;11 cells, in the assay with Molm-13 cells and in the assay with RPMI-8226 cells was greater than 50 µM each time. The EC50 in the assay on THP-1 cells, with U266 cells, with MCF-7 cells, with MDA-MB-231 cells, with Panc-1 cells and with Panc-28 cells was greater than 50 µM throughout. Moreover, the EC50 in the assay with cancer cells was greater than 50 µM. In addition, the “Expression of MLL target genes HoxA9, Meis1 and Myc” value in assay [2] and in assay [3] was “had no activity” each time.
